Where two headings read alike, the source gives them in different places.
Experiments:
HCV NS5B = target: T1, HCV NS5B (Hepatitis C virus genotype 1b, UniProt Q9WMX2); assay: HCV NS5B RdRp enzyme assay (standard / modified); format: biochemical
T1 construct: The protein was expressed with an 18 amino acid C-terminal truncation to enhance the solubility; made in house; host or cells: E. coli BL21 (DE3)
Experimental: HCV NS5B RdRp cloning, expression, and purification. The cDNA encoding the NS5B protein of HCV, genotype 1b, was cloned into the pET21a expression vector. The protein was expressed with an 18 amino acid C-terminal truncation to enhance the solubility. The E. coli competent cell line BL21 (DE3) was used for expression of the protein. Cultures were grown at 37° C. for ˜4 hours until the cultures reached an optical density of 2.0 at 600 nm. The cultures were cooled to 20° C. and induced with 1 mM IPTG. Fresh ampicillin was added to a final concentration of 50 μg/ml and the cells were grown overnight at 20° C.
Cell pellets (3 L) were lysed for purification to yield 15-24 mgs of purified NS5B. The lysis buffer consisted of 20 mM Tris-HCl, pH 7.4, 500 mM NaCl, 0.5% triton X-100, 1 mM DTT, 1 mM EDTA, 20% glycerol, 0.5 mg/ml lysozyme, 10 mM MgCl2, 15 ug/ml deoxyribonuclease I, and Complete TM protease inhibitor tablets (Roche). After addition of the lysis buffer, frozen cell pellets were resuspended using a tissue homogenizer. To reduce the viscosity of the sample, aliquots of the lysate were sonicated on ice using a microtip attached to a Branson sonicator. The sonicated lysate was centrifuged at 100,000×g for 1 hr at 4° C. and filtered through a 0.2 μm filter unit (Corning).
The protein was purified using three sequential chromatography steps: Heparin sepharose CL-6B, polyU sepharose 4B, and Hitrap SP sepharose (Pharmacia). The chromatography buffers were identical to the lysis buffer but contained no lysozyme, deoxyribonuclease I, MgCl2 or protease inhibitor and the NaCl concentration of the buffer was adjusted according to the requirements for charging the protein onto the column. Each column was eluted with a NaCl gradient which varied in length from 5-50 column volumes depending on the column type. After the final chromatography step, the resulting purity of the enzyme is >90% based on SDS-PAGE analysis. The enzyme was aliquoted and stored at −80° C.
Standard HCV NS5B RdRp enzyme assay. HCV RdRp genotype 1b assays were run in a final volume of 60 μl in 96 well plates (Costar 3912). The assay buffer is composed of 20 mM Hepes, pH 7.5, 2.5 mM KCl, 2.5 mM MgCl2, 1 mM DTT, 1.6 U RNAse inhibitor (Promega N2515), 0.1 mg/ml BSA (Promega R3961), and 2% glycerol. All compounds were serially diluted (3-fold) in DMSO and diluted further in water such that the final concentration of DMSO in the assay was 2%. HCV RdRp genotype 1b enzyme was used at a final concentration of 28 nM. A polyA template was used at 6 nM, and a biotinylated oligo-dT12 primer was used at 180 nM final concentration. Template was obtained commercially (Amersham 27-4110). Biotinylated primer was prepared by Sigma Genosys. 3H-UTP was used at 0.6 μCi (0.29 μM total UTP). Reactions were initiated by the addition of enzyme, incubated at 30° C. for 60 min, and stopped by adding 25 μl of 50 mM EDTA containing SPA beads (4 μg/μl, Amersham RPNQ 0007). Plates were read on a Packard Top Count NXT after >1 hr incubation at room temperature.
Modified HCV NS5B RdRp enzyme assay. A modified enzyme assay was performed essentially as described for the standard enzyme assay except for the following: The biotinylated oligo dT12 primer was precaptured on streptavidin-coated SPA beads by mixing primer and beads in assay buffer and incubating at room temperature for one hour. Unbound primer was removed after centrifugation. The primer-bound beads were resuspended in 20 mM Hepes buffer, pH 7.5 and used in the assay at final concentrations of 20 nM primer and 0.67 μg/μl beads. Order of addition in the assay: enzyme (14 nM) was added to diluted compound followed by the addition of a mixture of template (0.2 nM), 3H-UTP (0.6 μCi, 0.29 μM), and primer-bound beads, to initiate the reaction; concentrations given are final. Reactions were allowed to proceed for 4 hours at 30° C.
IC50 values for compounds were determined using seven different [I]. […]

HCV replicon cells = assay: HCV replicon FRET / luciferase assay; format: cell-based
Excerpt: FRET Assay Preparation. To perform the HCV FRET screening assay, 96-well cell culture plates were used. The FRET peptide (Anaspec, Inc.) (Taliani et al., Anal. Biochem. 1996, 240, 60-67) contains a fluorescence donor, EDANS, near one end of the peptide and an acceptor, DABCYL, near the other end. The fluorescence of the peptide is quenched by […] resonance energy transfer (RET) between the donor and the acceptor, but as the NS3 protease cleaves the peptide the products are released from RET quenching and the fluorescence of the donor becomes apparent. The assay reagent was made as follows: 5× cell Luciferase cell culture lysis reagent from Promega (#E153A) diluted to 1× with dH2O, NaCl added to 150 mM final, the FRET peptide diluted to 20 μM final from a 2 mM stock.
To prepare plates, HCV replicon cells, with or without a Renilla luciferase reporter gene, were trypsinized and placed into each well of a 96-well plate with titrated test compounds added in columns 3 through 12; columns 1 and 2 contained a control compound (HCV protease inhibitor), and the bottom row contained cells without compound. The plates were then placed in a CO2 incubator at 37° C.
Assays. Subsequent to addition of the test compounds described above (FRET Assay Preparation), at various times the plate was removed and Alamar blue solution (Trek Diagnostics, #00-100) was added per well as a measure of cellular toxicity. After reading in a Cytoflour 4000 instrument (PE Biosystems), plates were rinsed with PBS and then used for FRET assay by the addition of 30 ul of the FRET peptide assay reagent described above (FRET Assay Preparation) per well. The plate was then placed into the Cytoflour 4000 instrument which had been set to 340 excite/490 emission, automatic mode for 20 cycles and the plate read in a kinetic mode. Typically, the signal to noise using an endpoint analysis after the reads was at least three-fold. Alternatively, after Alamar blue reading, plates were rinsed with PBS, 50 ul of DMEM (high glucose) without phenol red was added and plates were then used for luciferase assay using the Promega Dual-Glo Luciferase Assay System.
Compound analysis was determined by quantification of the relative HCV replicon inhibition and the relative cytotoxicity values. To calculate cytoxicity values, the average Alamar Blue fluorescence signals from the control wells were set as 100% non-toxic. The individual signals in each of the compound test wells were then divided by the average control signal and multiplied by 100% to determine […]. To calculate the HCV replicon inhibition values, an average background value was obtained from the two wells containing the highest amount of HCV protease inhibitor at the end of the assay period. These numbers were similar to those obtained from naïve Huh-7 cells.
The background numbers were then subtracted from the average signal obtained from the control wells and this number was used as 100% activity. The individual signals in each of the compound test wells were then divided by the averaged control values after background subtraction and multiplied by 100% to determine percent activity. EC50 values for a protease inhibitor titration were calculated as the concentration which caused a 50% reduction in FRET or luciferase activity. The two numbers generated for the compound plate, percent cytoxicity and percent activity were used to determine compounds of interest for further analysis.

[1] = HCV RdRp genotype 1b enzyme, read-out: IC50
[2] = Hepatitis C virus, HCV replicon cells, FRET or luciferase readout, read-out: EC50

T1 sequence (Q9WMX2 2420-2992): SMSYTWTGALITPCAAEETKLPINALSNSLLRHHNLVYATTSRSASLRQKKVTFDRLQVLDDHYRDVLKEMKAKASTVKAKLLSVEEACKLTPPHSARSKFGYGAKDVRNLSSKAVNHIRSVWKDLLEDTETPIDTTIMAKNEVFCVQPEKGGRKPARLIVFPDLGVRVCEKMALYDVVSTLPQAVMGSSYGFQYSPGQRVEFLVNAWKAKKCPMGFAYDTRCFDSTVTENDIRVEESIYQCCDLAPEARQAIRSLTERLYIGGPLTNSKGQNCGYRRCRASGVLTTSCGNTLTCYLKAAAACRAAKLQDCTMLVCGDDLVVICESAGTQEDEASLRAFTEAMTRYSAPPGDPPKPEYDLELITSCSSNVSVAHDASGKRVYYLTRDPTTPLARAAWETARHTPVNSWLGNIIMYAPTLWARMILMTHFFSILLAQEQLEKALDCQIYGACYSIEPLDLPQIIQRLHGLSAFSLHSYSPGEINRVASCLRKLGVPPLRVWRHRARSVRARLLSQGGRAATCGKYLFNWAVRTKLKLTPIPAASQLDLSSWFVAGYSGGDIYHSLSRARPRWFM

Row | SMILES | IC50 (HCV NS5B; [1]) [µM] | EC50 (HCV replicon cells; [2]) [µM] | IC50 (HCV NS5B) [µM] | EC50 (HCV replicon cells; Hepatitis C virus) [µM] | EC50 (HCV replicon cells; HCV replicon cells, FRET or luciferase readout, read-out: EC50) [µM]
1 | COc1ccc2c(c1)C=C(c1c(C(=O)N3CCCC(N(C)C)C3)cnn1C)Cn1c-2c(C2CCCCC2)c2ccc(C(=O)NS(=O)(=O)C(C)C)cc21 (stereo not shown) | 0.001 to 0.5 | 0.001 to 0.5 | – | – | –
2 | COc1ccc2c(c1)C=C(c1c(C(=O)N3C4COCC3COC4)cnn1C)Cn1c-2c(C2CCCCC2)c2ccc(C(=O)NS(=O)(=O)N3CCOCC3)cc21 | – | – | 0.001 to 0.5 | 0.001 to 0.5 | –
3 | COc1ccc2c(c1)C=C(c1c(C(=O)N3CCOCC3)c(C)nn1C)Cn1c-2c(C2CCCCC2)c2ccc(C(=O)NS(=O)(=O)N(C)C)cc21 | 0.001 to 0.5 | 0.001 to 0.5 | – | – | –
4 | COc1ccc2c(c1)C=C(c1c(C(=O)N3C4CCC3CN(C)C4)cnn1C)Cn1c-2c(C2CCCCC2)c2ccc(C(=O)NS(=O)(=O)C3CCCC3)cc21 | – | – | 0.001 to 0.5 | 0.001 to 0.5 | –
5 | CCOC(=O)c1ccoc1C1=Cc2cc(OC)ccc2-c2c(C3CCCCC3)c3ccc(C(=O)NS(=O)(=O)C(C)C)cc3n2C1 | 0.001 to 0.5 | > 0.5 | – | – | –
6 | COc1ccc2c(c1)C=C(c1c(C(=O)N(C)C3CCN(C)C3)cnn1C)Cn1c-2c(C2CCCCC2)c2ccc(C(=O)NS(=O)(=O)N3CCOCC3)cc21 (stereo not shown) | 0.001 to 0.5 | 0.001 to 0.5 | – | – | –
7 | CCn1nc(C)c(C2=Cc3cc(OC)ccc3-c3c(C4CCCCC4)c4ccc(C(=O)NS(=O)(=O)C(C)C)cc4n3C2)c1C(=O)N1C[C@@H](C)O[C@@H](C)C1 | 0.001 to 0.5 | 0.001 to 0.5 | – | – | –
8 | CCn1ncc(C(=O)N2CCOCC2)c1C1=Cc2cc(OC)ccc2-c2c(C3CCCCC3)c3ccc(C(=O)NS(=O)(=O)C(C)C)cc3n2C1 | 0.001 to 0.5 | 0.001 to 0.5 | – | – | –
9 | COc1ccc2c(c1)C=C(c1c(C(=O)N3C4CCC3CN(C)C4)cnn1CC(F)(F)F)Cn1c-2c(C2CCCCC2)c2ccc(C(=O)NS(=O)(=O)C(C)C)cc21 | – | – | 0.001 to 0.5 | 0.001 to 0.5 | –
10 | COc1ccc2c(c1)C=C(c1sccc1C(=O)N1C3CCC1CN(C)C3)Cn1c-2c(C2CCCCC2)c2ccc(C(=O)NS(=O)(=O)C(C)C)cc21 | – | – | 0.001 to 0.5 | 0.001 to 0.5 | –
11 | COc1ccc2c(c1)C=C(c1c(C(=O)N3CCOCC3)cnn1C)Cn1c-2c(C2CCCCC2)c2ccc(C(=O)NS(=O)(=O)N(C)C)cc21 | 0.001 to 0.5 | 0.001 to 0.5 | – | – | –
12 | CCn1nc(C)c(C(=O)N2C[C@@H](C)O[C@@H](C)C2)c1C1=Cc2cc(OC)ccc2-c2c(C3CCCCC3)c3ccc(C(=O)NS(=O)(=O)C(C)C)cc3n2C1 [drawing 627] | 0.001 to 0.5 | – | – | – | 0.001 to 0.5
13 | COc1ccc2c(c1)C=C(c1c(C(=O)N3C4CCC3CN(C)C4)cnn1C)Cn1c-2c(C2CCCCC2)c2ccc(C(=O)NS(=O)(=O)CC(C)C)cc21 | – | – | 0.001 to 0.5 | 0.001 to 0.5 | –
14 | CCC(C)S(=O)(=O)NC(=O)c1ccc2c(C3CCCCC3)c3n(c2c1)CC(c1c(C(=O)N2CCOCC2)cnn1C)=Cc1cc(OC)ccc1-3 (stereo not shown) | 0.001 to 0.5 | 0.001 to 0.5 | – | – | –
15 | COc1ccc2c(c1)C=C(c1c(C(=O)N3C4CCC3COC4)cnn1CC(F)(F)F)Cn1c-2c(C2CCCCC2)c2ccc(C(=O)NS(=O)(=O)C(C)C)cc21 | – | – | 0.001 to 0.5 | 0.001 to 0.5 | –
16 | CCn1ncc(C(=O)N2C[C@@H]3C[C@H]2CO3)c1C1=Cc2cc(OC)ccc2-c2c(C3CCCCC3)c3ccc(C(=O)NS(=O)(=O)C(C)C)cc3n2C1 | 0.001 to 0.5 | 0.001 to 0.5 | – | – | –
17 | COc1ccc2c(c1)C=C(c1c(C(=O)N3C4CC3CN(C)C4)cnn1C(C)C)Cn1c-2c(C2CCCCC2)c2ccc(C(=O)NS(=O)(=O)C(C)C)cc21 | 0.001 to 0.5 | 0.001 to 0.5 | – | – | –
18 | COC[C@@H]1CN(C(=O)c2cnn(C)c2C2=Cc3cc(OC)ccc3-c3c(C4CCCCC4)c4ccc(C(=O)NS(=O)(=O)CC(C)C)cc4n3C2)CCO1 | 0.001 to 0.5 | 0.001 to 0.5 | – | – | –
19 | COc1ccc2c(c1)C=C(c1c(C(=O)N3C[C@@H](C)N(C)[C@@H](C)C3)cnn1CC(F)(F)F)Cn1c-2c(C2CCCCC2)c2ccc(C(=O)NS(=O)(=O)C(C)C)cc21 | 0.001 to 0.5 | 0.001 to 0.5 | – | – | –
20 | COc1ccc2c(c1)C=C(c1c(C(=O)N3CCN(C(C)C)CC3)cnn1C)Cn1c-2c(C2CCCCC2)c2ccc(C(=O)NS(=O)(=O)N3CCOCC3)cc21 | 0.001 to 0.5 | 0.001 to 0.5 | – | – | –
21 | COc1ccc2c(c1)C=C(c1c(C(=O)N3C4CCCC3COC4)cnn1CC(F)(F)F)Cn1c-2c(C2CCCCC2)c2ccc(C(=O)NS(=O)(=O)C(C)C)cc21 | – | – | 0.001 to 0.5 | 0.001 to 0.5 | –
22 | CCC(C)S(=O)(=O)NC(=O)c1ccc2c(C3CCCCC3)c3n(c2c1)CC(c1c(C(=O)N2C[C@@H](C)O[C@@H](C)C2)cnn1C)=Cc1cc(OC)ccc1-3 (stereo partly shown) | 0.001 to 0.5 | 0.001 to 0.5 | – | – | –
23 | CCn1ncc(C(=O)N2CCOCC2)c1C1=Cc2cc(OC)ccc2-c2c(C3CCCCC3)c3ccc(C(=O)NS(=O)(=O)N4CCCC4)cc3n2C1 | 0.001 to 0.5 | 0.001 to 0.5 | – | – | –
24 | COc1ccc2c(c1)C=C(c1c(C(=O)N3C4CCCC3COC4)cnn1C)Cn1c-2c(C2CCCCC2)c2ccc(C(=O)NS(=O)(=O)CC(C)C)cc21 | – | – | 0.001 to 0.5 | 0.001 to 0.5 | –
25 | COc1ccc2c(c1)C=C(c1ocnc1C(=O)N1CCOCC1)Cn1c-2c(C2CCCCC2)c2ccc(C(=O)NS(=O)(=O)N(C)C)cc21 | 0.001 to 0.5 | 0.001 to 0.5 | – | – | –
26 | COc1ccc2c(c1)C=C(c1c(C(=O)N3CCOCC3)c(C(F)(F)F)nn1C)Cn1c-2c(C2CCCCC2)c2ccc(C(=O)NS(=O)(=O)C(C)C)cc21 | < 0.02 | 0.001 to 0.5 | – | – | –
